Test results as given in patent publication USRE37623E1, “Enzyme inhibitors, their synthesis, and methods for use” (priority 1993, dated 2002).
Like-named read-outs stand apart in the source and are kept apart here. Each block holds one compound with its values, some of them ahead of it.

Experiments:
[1] = molecular target: T1, UrdPase; test: Inhibition of uridine phosphorylase in mouse liver cytosol (apparent Ki, Dixon plots); assay type: biochemical; conditions: for Ki: enzyme from mouse liver cytosol, uridine 1 mM, ± S.D.
T1 construct: The supernatant fluids (cytosol) were collected and used as an enzyme source
Procedure: (§1) Mouse livers were obtained from female Swiss Albino (CD1) mice weighing 20-24 g (Charles River Laboratories, Boston, Mass.). Mice were sacrificed by cervical dislocation and the livers removed, weighed, minced, and homogenized in ice-cold (3:1, v/w) buffer [20 mM potassium phosphate. pH 8.0; 1 mM dithiothreitol (DTT), 1 mM EDTA] using a Polytron homogenizer (Brinkman Instruments, Westbury, N.J.). The homogenates were centrifuged at 105,000×g for 1 h. at 4° C. The supernatant fluids (cytosol) were collected and used as an enzyme source.
(§2) All assays described below were conducted at 37° C. under conditions where enzyme activity was linear with respect to time and enzyme concentration. For each inhibitor, 5 concentrations were used ranging from […]. Reactions were started by the addition of extract and stopped by boiling in a water bath for 2 minutes followed by freezing, Precipitated proteins were removed by centrifugation. Substrates were separated from products in the supematant by TLC and the radioactivity in the spots was determined on a percentage basis using a Berthold LB-2821 Automatic TLC-Linear Analyzer.
Nucleoside cleavage was measured isotopically by following the formation of nucleobases from their respective nucleosides as previously described. […] The incubation was terminated after 30 min. Uridine and thymidine were separated from their respective nucleobases on silica gel TLC plates developed with CHCl3:MEOH:AcOH (90:5:5, v/v/v). The Rf values were uridine, 0.07; uracil, 0.43; thymidine, 0.14; and thymine, 0.62.
Determination and significance of apparent Ki values was pertbrined using uridine (1 mM) and 5 different concentrations of the inhibitor ranging from […]. Apparent Ki values were estimated from Dixon's plots (1/v vs. [I]) of the data by a computer program with least squares fitting. Apparent Ki, values are related to Ki values by the following equation:
Apparent Ki=Kis(1+[S]/Km)/1+([S]/Km) (Kis/Kii)
where Kis and Kii are inhibition constants that would have been estimated from the replot of slope and intercept, respectively, of a Lineweaver-Burk plots vs. [I]. If a compound is a competitive inhibitor with respect to uridine, Kii=∝ and Kis=Ki. Therefore, the apparent .Ki=Ki(1+[S]1 Km). […] It should be noted, however, that we have not characterized the compounds used in this study with regard to the type of inhibition (competitive, noncompetitive, or uncompetitive) or whether they are substrates for the enzyme.

[2] = molecular target: T2, DHUDase (Mus musculus, UniProt Q8CHR6); test: Inhibition of dihydrouracil dehydrogenase in mouse liver cytosol (apparent Ki); assay type: biochemical; conditions: enzyme from mouse liver cytosol; 25 μM uracil; ± S.D.
T2 construct: The supernatant fluids (cytosol) were collected and used as an enzyme source; from tissue; host or cells: mouse liver cytosol (female Swiss Albino CD1 mice)
T2 sequence (Q8CHR6 1-1025): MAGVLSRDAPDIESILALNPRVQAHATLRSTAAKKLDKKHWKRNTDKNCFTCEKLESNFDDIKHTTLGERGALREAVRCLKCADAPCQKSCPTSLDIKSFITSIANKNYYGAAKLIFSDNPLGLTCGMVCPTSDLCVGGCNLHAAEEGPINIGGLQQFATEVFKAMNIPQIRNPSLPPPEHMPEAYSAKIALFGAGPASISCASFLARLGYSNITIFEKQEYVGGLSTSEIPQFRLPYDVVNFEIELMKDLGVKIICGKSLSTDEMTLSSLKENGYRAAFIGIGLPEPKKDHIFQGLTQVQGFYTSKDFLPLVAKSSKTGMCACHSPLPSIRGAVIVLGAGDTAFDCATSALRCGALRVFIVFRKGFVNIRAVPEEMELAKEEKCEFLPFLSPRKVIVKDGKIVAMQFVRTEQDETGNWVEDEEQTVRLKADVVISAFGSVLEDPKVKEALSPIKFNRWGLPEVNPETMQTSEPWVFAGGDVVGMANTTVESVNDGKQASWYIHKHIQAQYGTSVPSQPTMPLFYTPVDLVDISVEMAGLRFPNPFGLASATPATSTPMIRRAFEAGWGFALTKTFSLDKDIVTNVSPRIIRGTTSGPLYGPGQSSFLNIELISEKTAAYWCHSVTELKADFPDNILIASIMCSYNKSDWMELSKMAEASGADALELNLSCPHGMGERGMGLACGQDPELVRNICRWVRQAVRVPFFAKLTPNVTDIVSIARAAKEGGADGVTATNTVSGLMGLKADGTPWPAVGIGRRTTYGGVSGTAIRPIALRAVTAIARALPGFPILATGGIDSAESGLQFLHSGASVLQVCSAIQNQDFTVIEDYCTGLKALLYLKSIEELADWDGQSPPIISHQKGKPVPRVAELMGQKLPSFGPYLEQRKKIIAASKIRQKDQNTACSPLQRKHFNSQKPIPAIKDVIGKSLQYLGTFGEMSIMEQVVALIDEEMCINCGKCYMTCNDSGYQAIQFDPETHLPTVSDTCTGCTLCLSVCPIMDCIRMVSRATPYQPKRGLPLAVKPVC
Procedure: as §1, §2
The activity of the enzyme was measured by following the formation of dihydrouracil, carbamyl-β-alanine, and β-alanine from [6 -^14C]uracil as previously described. […] DHUDase activity was determined as the sum of the products dihydrouracil, carbamyl-β-alanine, and β-alanine. […]

[3] = Pharmacokinetics of PSAU in CD-1 mice; assay type: in vivo; conditions: female CD-1 mice; for Cmax / half-life / MRT: mouse, ip, plasma; for Cmax: read-out: Cmax, peak plasma concentration; for half-life: read-out: Apt½, elimination half-life (converted); for MRT: read-out: MRT, mean residence time
Procedure: PSAU was injected i.p. into female CD-1 mice. At various time intervals, 250 μl of whole blood were collected from the orbital sinuses from three mice by a heparinized Natelson pipet and placed on ice. The whole blood was then centrifuged for 5 minutes to separate the plasma which was kept in a -20° C. freezer until preparation for analysis by the HPLC. The pharmacokinetic parameters were estimated by compartmental model-independent methods using a […]/Base program. The AUC was determined by the trapezoidal rule with extrapolation to time infinity using the terminal disposition slope (K) generated by a weighted nonlinear least-squares regression of an exponential fit of the data, with the weighted square factor set as the reciprocal of the calculated concentration squared. Elimination half-life of uridine was calculated from 0.693/K The total plasma clearance (C1) was calculated by dividing the dose by the AUC and the weight of the mouse. The peak plasma concentration (Cmax) values and time to peak plasma concentration (Tmax) values were observed experimental values. Renal clearance (CLR) of uridine was calculated by dividing the […] by the AUC.

SMILES: CCOCn1cc([Se]c2ccccc2)c(=O)[nH]c1=O [1-Ethoxymethyl-5-phenylselenenyluracil, 1-(Ethoxymethyl)-5-(phenylselenenyl)uracil]
- melting point: 143 to 145 °C
- Ki [1]: 313 ± 32 µM

SMILES: O=c1[nH]c(=O)n([C@H]2C[C@H](O)[C@@H](CO)O2)cc1[Se]c1ccccc1 [5-(Phenylselenenyl)-2′-deoxyuridine, 5-(phenylselenenyl)-2′-deoxyuridine]
- Ki [1]: 5.5 ± 0.6 µM

SMILES: O=c1[nH]c(=O)n([C@@H]2O[C@H](CO)[C@@H](O)[C@H]2O)cc1[Se]c1ccccc1 [5-(Phenylselenenyl)uridine, 5-(phenylselenenyl)uridine]
- Ki [1]: 4 ± 0.2 µM

- Ki [1]: 3.1 ± 0.22 µM
SMILES: O=c1[nH]c(=O)n(COCCO)cc1Cc1ccccc1 [5-Benzylacyclouridine (BAU), 5-Benzylacyclouridine, reference compound]

SMILES: O=c1[nH]cc([Se]c2ccccc2)c(=O)[nH]1 [5-Phenylselenenyluracil (PSU), 5-Phenylselenenyluracil]
- melting point: 249 to 251 °C
- Ki [2]: 4.8 ± 0.6 µM
- Ki [1]: 205 ± 35 µM

- Ki [2]: 5.4 ± 0.6 µM
- Ki [1]: 744 ± 85 µM
SMILES: O=c1[nH]cc(Sc2ccccc2)c(=O)[nH]1 [5-Phenylthiouracil (PTU), 5-(Phenylthio)uracil]

SMILES: O=c1[nH]c(=O)n(COCCO)c([Se]c2ccccc2)c1F [6-(Phenylselenenyl)acyclo-5-FUrd]
- Ki [1]: 35 ± 5.6 µM

SMILES: O=c1cc([Se]c2ccccc2)n(COCCO)c(=O)[nH]1 [6-(Phenylselenenyl)acyclouridine, 1-[(2-hydroxyethoxy)methyl]-6-(phenylselenenyl)uridine]
- Ki [1]: 19.3 ± 1.5 µM

SMILES: O=c1[nH]c(=O)n(COCCO)cc1[Se]c1ccccc1 [PSAU, 1-[(2-Hydroxyethoxy)methyl]-5-(phenylselenenyl)uracil]
- Ki [1]: 3.8 ± 0.8 µM
- ApVd, volume of distribution ([3]; PSAU 30 mg/kg i.p.): 0.331 L/kg
- ApVd, volume of distribution ([3]; PSAU 60 mg/kg i.p.): 0.356 L/kg
- Cmax ([3]; PSAU 30 mg/kg i.p.): 100 µM
- Cmax ([3]; PSAU 60 mg/kg i.p.): 210 µM
- half-life ([3]; PSAU 30 mg/kg i.p.): 0.7 h
- MRT ([3]; PSAU 30 mg/kg i.p.): 1.28 h
- half-life ([3]; PSAU 60 mg/kg i.p.): 1.4 h
- MRT ([3]; PSAU 60 mg/kg i.p.): 2.27 h

- Km ([1]; UrdPase from mouse liver, substrate): 66 µM
SMILES: O=c1ccn([C@@H]2O[C@H](CO)[C@@H](O)[C@H]2O)c(=O)[nH]1 [uridine]
